This test concerns the target T1, Human OTUB1 wild-type (Homo sapiens, UniProt Q96FW1).
T1 construct: His tag (N); made in house; host or cells: E. coli BL21-CodonPlus (DE3)-RIPIL
The experiment in a line: Covalent modification of OTUB1 (adduct formation), mass spectrometry-based assay (OTUB1 covalent binders; selected CFTR or cGAS based bivalent compounds). Format: binding. As to conditions: covalent adduct formation with OTUB1 protein. In outline: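 His-tagged human OTUB1 (10 μM), E. coli-expressed, incubated with compound (2500 μM) in 50 mM Tris-HCl pH 7.5, 150 mM NaCl, 0.5 mM TCEP for 1 h at room temperature. Adduct detected by intact-protein LC/ESI-TOF mass spectrometry after buffer exchange; duplicates.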

T1 sequence (Q96FW1 whole entry): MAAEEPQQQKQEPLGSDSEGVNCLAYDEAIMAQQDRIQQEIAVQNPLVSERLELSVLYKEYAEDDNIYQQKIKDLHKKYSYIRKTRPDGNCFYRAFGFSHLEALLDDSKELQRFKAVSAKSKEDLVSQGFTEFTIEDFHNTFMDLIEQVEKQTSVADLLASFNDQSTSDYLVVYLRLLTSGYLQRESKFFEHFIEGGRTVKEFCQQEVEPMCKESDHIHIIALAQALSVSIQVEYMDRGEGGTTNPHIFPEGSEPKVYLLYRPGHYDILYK

`Cc1ccc(C(=O)N2C[C@H]3C[C@@H]2CN3C(=O)/C=C/CN(C)C)s1` [XS190-81, (E)-4-(dimethylamino)-1-((1R,4R)-5-(5-methylthiophene-2-carbonyl)-2,5-diazabicyclo[2.2.1]heptan-2-yl)but-2-en-1-one]: the “% of OTUB1 modified” value is reported as 10%. In the case of `CN(C)C/C=C/C(=O)N1C2CC1CN(C(=O)c1ccccc1)C2` [XS190-126, (E)-1-(3-benzoyl-3,6-diazabicyclo[3.1.1]heptan-6-yl)-4-(dimethylamino)but-2-en-1-one] it was 49%; in that of `Cc1ccc(C(=O)NCC2CCN2C(=O)/C=C/CN(C)C)s1` (centres unmarked) [XS190-127, (E)-N-((1-(4-(dimethylamino)but-2-enoyl)azetidin-2-yl)methyl)-5-methylthiophene-2-carboxamide], 15%; in that of `CN(C)C/C=C/C(=O)N1C2CC1CN(C(=O)C1CCCC1)C2` [XS190-128, (E)-1-(3-(cyclopentanecarbonyl)-3,6-diazabicyclo[3.1.1]heptan-6-yl)-4-(dimethylamino)but-2-en-1-one], 47%. As to `CN(C)C/C=C/C(=O)N1C2CC1CN(C(=O)C1CCCCC1)C2` [XS190-129, (E)-1-(3-(cyclohexanecarbonyl)-3,6-diazabicyclo[3.1.1]heptan-6-yl)-4-(dimethylamino)but-2-en-1-one], the “% of OTUB1 modified” value is 48%. Take `CC(=O)NCc1ccc(C(=O)N2CC3CC(C2)N3C(=O)/C=C/CN(C)C)s1` [XS190-130, (E)-N-((5-(6-(4-(dimethylamino)but-2-enoyl)-3,6-diazabicyclo[3.1.1]heptane-3-carbonyl)thiophen-2-yl)methyl)acetamide]: the “% of OTUB1 modified” value is given as 53%.

Regarding `Cc1ocnc1C(=O)N1CC2CC(C1)N2C(=O)/C=C/CN(C)C` [XS190-137, (E)-4-(dimethylamino)-1-(3-(5-methyloxazole-4-carbonyl)-3,6-diazabicyclo[3.1.1]heptan-6-yl)but-2-en-1-one], the “% of OTUB1 modified” value is reported as 20%. `COCc1ccc(C(=O)N2CC3CC(C2)N3C(=O)/C=C/CN(C)C)s1` [XS190-138, (E)-4-(dimethylamino)-1-(3-(5-(methoxymethyl)thiophene-2-carbonyl)-3,6-diazabicyclo[3.1.1]heptan-6-yl)but-2-en-1-one]: the “% of OTUB1 modified” value was 45%.

Turning to `CN(C)C/C=C/C(=O)N1C2CCC1C(=O)N(C1CCCC1)C2` (centres unmarked) [XS190-144, (E)-3-cyclopentyl-8-(4-(dimethylamino)but-2-enoyl)-3,8-diazabicyclo[3.2.1]octan-2-one], the “% of OTUB1 modified” value worked out at 80%. `Cc1ccc(C(=O)N2CC3CC(C2)N3C(=O)/C=C/CN(C)C)o1` [XS190-157, (E)-4-(dimethylamino)-1-(3-(5-methylfuran-2-carbonyl)-3,6-diazabicyclo[3.1.1]heptan-6-yl)but-2-en-1-one]: the “% of OTUB1 modified” value amounted to 80%. In the case of `Cc1ccc(CN2CC3CC(C2)N3C(=O)/C=C/CN(C)C)s1` [XS190-158, (E)-4-(dimethylamino)-1-(3-((5-methylthiophen-2-yl)methyl)-3,6-diazabicyclo[3.1.1]heptan-6-yl)but-2-en-1-one] it was 8%.

In the case of `CC1CCC(C(=O)N2CC3CC(C2)N3C(=O)/C=C/CN(C)C)C1` (centres unmarked) [XS190-170, (E)-4-(dimethylamino)-1-(3-(3-methylcyclopentane-1-carbonyl)-3,6-diazabicyclo[3.1.1]heptan-6-yl)but-2-en-1-one], the “% of OTUB1 modified” value is given as 55%. Regarding `Cc1cccc(N2CC3CCC(C2=O)N3C(=O)/C=C/CN(C)C)n1` (centres unmarked) [XS190-181, (E)-8-(4-(dimethylamino)but-2-enoyl)-3-(6-methylpyridin-2-yl)-3,8-diazabicyclo[3.2.1]octan-2-one], the “% of OTUB1 modified” value was 30%. In the case of `Cc1cccc(N2CC3CCC(C2=O)N3C(=O)/C=C/CN(C)C)c1` (centres unmarked) [XS190-182, (E)-8-(4-(dimethylamino)but-2-enoyl)-3-(m-tolyl)-3,8-diazabicyclo[3.2.1]octan-2-one] it was 90%; in that of `Cc1cnc(N2CC3CCC(C2=O)N3C(=O)/C=C/CN(C)C)s1` (centres unmarked) [XS190-183, (E)-8-(4-(dimethylamino)but-2-enoyl)-3-(5-methylthiazol-2-yl)-3,8-diazabicyclo[3.2.1]octan-2-one], 95%.

With `CC(=O)N1CC2CC(C1)N2C(=O)/C=C/CN(C)C` [XS190-186, (E)-1-(3-acetyl-3,6-diazabicyclo[3.1.1]heptan-6-yl)-4-(dimethylamino)but-2-en-1-one], the “% of OTUB1 modified” value was determined as 70%.

Consider `CN(C)C/C=C/C(=O)N1C2CCC1C(=O)N(C)C2` (centres unmarked) [XS197-4, (E)-8-(4-(dimethylamino)but-2-enoyl)-3-methyl-3,8-diazabicyclo[3.2.1]octan-2-one], for which the “% of OTUB1 modified” value was determined as 75%. In the case of `CC(=O)N1CCC(C(=O)N2CC3CC(C2)N3C(=O)/C=C/CN(C)C)CC1` [XS197-6, (E)-1-(3-(1-acetylpiperidine-4-carbonyl)-3,6-diazabicyclo[3.1.1]heptan-6-yl)-4-(dimethylamino)but-2-en-1-one], the “% of OTUB1 modified” value is 22%. In the case of `Cc1ccc(N2CC3CCC(C2=O)N3C(=O)/C=C/CN(C)C)[nH]1` (centres unmarked) [XS197-14, (E)-8-(4-(dimethylamino)but-2-enoyl)-3-(5-methyl-1H-pyrrol-2-yl)-3,8-diazabicyclo[3.2.1]octan-2-one], the “% of OTUB1 modified” value was 85%. In the case of `CN1CC2CCC(C1=O)N2C(=O)CCl` (centres unmarked) [XS197-29, 8-(2-chloroacetyl)-3-methyl-3,8-diazabicyclo[3.2.1]octan-2-one] it was 75%; in that of `CN(C)C/C=C/C(=O)N1C2CC1CN(C(=O)C1CCC1)C2` [XS197-38, (E)-1-(3-(cyclobutanecarbonyl)-3,6-diazabicyclo[3.1.1]heptan-6-yl)-4-(dimethylamino)but-2-en-1-one], 43%; in that of `CC(C)c1ccc(C(=O)N2CC3CC(C2)N3C(=O)/C=C/CN(C)C)s1` [XS197-49, (E)-4-(dimethylamino)-1-(3-(5-isopropylthiophene-2-carbonyl)-3,6-diazabicyclo[3.1.1]heptan-6-yl)but-2-en-1-one], 85%. As to `CC(C)C(=O)N1CC2CC(C1)N2C(=O)/C=C/CN(C)C` [XS197-50, (E)-4-(dimethylamino)-1-(3-isobutyryl-3,6-diazabicyclo[3.1.1]heptan-6-yl)but-2-en-1-one], the “% of OTUB1 modified” value is reported as 8%. Regarding `CN(C)C/C=C/C(=O)N1C2CCC1C(=O)N(C1CCC1)C2` (centres unmarked) [XS197-70, (E)-3-cyclobutyl-8-(4-(dimethylamino)but-2-enoyl)-3,8-diazabicyclo[3.2.1]octan-2-one], the “% of OTUB1 modified” value is 75%.

Turning to `CC(=O)N1CCC(c2ccc(C(=O)N3CC4CC(C3)N4C(=O)/C=C/CN(C)C)s2)C1` (centres unmarked) [XS197-71, (E)-1-(3-(5-(1-acetylpyrrolidin-3-yl)thiophene-2-carbonyl)-3,6-diazabicyclo[3.1.1]heptan-6-yl)-4-(dimethylamino)but-2-en-1-one], the “% of OTUB1 modified” value is listed as 78%.

Turning to `CC(=O)N1CCC(c2ccc(C(=O)N3CC4CC(C3)N4C(=O)/C=C/CN(C)C)s2)CC1` [XS197-72, (E)-1-(3-(5-(1-acetylpiperidin-4-yl)thiophene-2-carbonyl)-3,6-diazabicyclo[3.1.1]heptan-6-yl)-4-(dimethylamino)but-2-en-1-one], the “% of OTUB1 modified” value is listed as 90%.

The record behind these values is patent US20260315604A1, “OTUB1 Small-Molecule Binders and OTUB1-recruiting Deubiquitinase-targeting Chimeras (DUBTACs)” (ICAHN SCHOOL OF MEDICINE AT MOUNT SINAI, priority 2023, published 2026).
